In one assay the target is T1, hTRPV3 T636A mutant (Homo sapiens, UniProt Q8NET8, T636A).
T1 construct: expressed in transfected cells; host or cells: HEK293T
T1 sequence (Q8NET8 1-790 T636A): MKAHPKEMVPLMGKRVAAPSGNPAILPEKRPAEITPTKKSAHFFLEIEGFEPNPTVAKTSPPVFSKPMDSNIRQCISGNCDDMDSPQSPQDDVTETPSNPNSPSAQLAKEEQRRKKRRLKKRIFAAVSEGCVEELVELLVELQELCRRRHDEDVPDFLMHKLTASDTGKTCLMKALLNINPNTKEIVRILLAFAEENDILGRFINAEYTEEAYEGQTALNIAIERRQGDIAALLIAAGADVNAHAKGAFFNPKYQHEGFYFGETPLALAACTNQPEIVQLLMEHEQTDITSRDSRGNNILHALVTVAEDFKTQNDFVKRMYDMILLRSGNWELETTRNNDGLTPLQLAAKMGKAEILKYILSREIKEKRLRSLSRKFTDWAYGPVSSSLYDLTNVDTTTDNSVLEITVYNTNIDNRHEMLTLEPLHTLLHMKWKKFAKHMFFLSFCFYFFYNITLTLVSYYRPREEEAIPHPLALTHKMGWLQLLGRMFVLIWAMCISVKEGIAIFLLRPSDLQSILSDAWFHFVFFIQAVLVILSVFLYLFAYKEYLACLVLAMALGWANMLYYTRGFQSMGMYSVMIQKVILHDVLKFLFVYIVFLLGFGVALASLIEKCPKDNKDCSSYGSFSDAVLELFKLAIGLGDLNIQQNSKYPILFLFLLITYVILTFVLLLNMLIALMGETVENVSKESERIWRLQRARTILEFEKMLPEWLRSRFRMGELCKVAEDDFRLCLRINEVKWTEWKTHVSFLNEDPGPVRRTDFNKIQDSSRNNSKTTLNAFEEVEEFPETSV
As to the kind of experiment: Whole-cell patch-clamp of hTRPV3 T636A mutant in HEK293T cells. The class given is cell-based. For orientation: In patch-clamp work, channel activity is measured electrically.

The target of the next assay is T2, hTRPV3 I637A mutant (Homo sapiens, UniProt Q8NET8, I637A).
T2 construct: expressed in transfected cells; host or cells: HEK293T
T2 sequence (Q8NET8 1-790 I637A): T1 sequence (Q8NET8 1-790 T636A) with A636T, I637A
As to the kind of experiment: Whole-cell patch-clamp of hTRPV3 I637A mutant in HEK293T cells. The class given is cell-based.

A further assay addresses T3, hTRPV3 L669A mutant (Homo sapiens, UniProt Q8NET8, L669A).
T3 sequence (Q8NET8 1-790 L669A): T1 sequence (Q8NET8 1-790 T636A) with A636T, L669A
As to the kind of experiment: cell-based.

Changes are numbered by the printed parent chain. Several values for one entry are separate records, joined by “and”; a condition that tells them apart may be missing. Equal values may be shown once.

In general, IC50 refers to the concentration that inhibits the measured activity by half.

For the molecule `O=C(O)/C=C/c1ccc(O)c(O)c1` [CA, caffeic acid], the IC50 is > 1000 µM and 1000 µM at hTRPV3 T636A mutant (T636A hTRPV3, 50 μM 2-APB, +80 mV, Hill fit, read-out: IC50, inhibition of T636A mutant outward currents); 306 ± 61.1 µM on hTRPV3 I637A mutant (I637A hTRPV3, 50 μM 2-APB, +80 mV, Hill fit, read-out: IC50, inhibition of I637A mutant outward currents); 180 ± 59.9 µM against hTRPV3 L669A mutant. The “channel current inhibition by 500 μM CA compared to WT” value on hTRPV3 T636A mutant (T636A mutant, 50 μM 2-APB, 500 μM CA) is recorded as “significantly diminished”; on hTRPV3 I637A mutant (I637A mutant, 50 μM 2-APB, 500 μM CA), “significantly diminished”.

The record behind these values is publication PMC11357638 (Molecules, 2024).
